# Legend:
# [1] = test system: TREU 667 procyclic forms; assay: Anti-p-tyr immunoblot (Western) analysis of protein tyrosine phosphorylation after orthovanadate treatment; format: cell-based, T. brucei; design: level of protein tyrosine phosphorylation of specific substrates, particularly ptp40 and ptp42: dose or concentration left out as unconfirmed
# Description: In the drawings: • FIGURE 1 illustrates the specificity of reactivity with anti-p-tyr antibodies. Lysate from the monomorphic trypanosome strain EATRO 164, clone IHRI 1, procyclic forms (10⁷ cells) was loaded per lane on a 10% sodium dodecyl sulfate polyacrylamide gel electrophoresis (SDS-PAGE) gel. Proteins were transferred to polyvinylidene difluoride membranes, incubated with anti-p-tyr antibodies, and followed by treatment with ¹²⁵I-protein A. Panel A: 0.25 µg ml⁻¹ anti-p-tyr antibodies. Panel B: 1 µg ml⁻¹ anti-p-tyr antibodies, plus 40 mM phenyl phosphate. Molecular weight markers are indicated. Lanes 1 and 2 differ only in the concentration of orthovanadate used during cell processing. • FIGURE 2 illustrates immunoprecipitation and phosphoamino acid analysis. Panel 2A: Western analysis of anti-p-tyr immunoprecipitates. Immunoreactive proteins were enriched by immunoprecipitation as described herein. Each lane was loaded with material corresponding to the same amount of cell lysate. Lanes: 1) total cell lysate; 2) lysate cleared of proteins reactive with anti-p-tyr; 3) eluate from anti-p-tyr immunoprecipitation. Panel 2B: Two-dimensional phosphoamino acid analysis. Procyclic forms were metabolically labelled with [³²P] orthophosphate, and proteins reactive with the anti-p-tyr antiserum were enriched by immunoprecipitation as described above. The proteins were hydrolyzed and phosphoamino acids separated by two-dimensional electrophoresis. […] Lysate of 10⁷ cells from each stage of the life cycle was loaded. TREU 667 is a pleiomorphic strain; EATRO 164 is a monomorphic strain. Independent samples produced by difluoromethylornithine (DFMO) treatment are indicated (D). PF 100% mid-log phase procyclic culture forms. SL Slender bloodforms (EATRO, 100% slender; TREU 75% slender). INT Intermediate bloodforms (approximately 20% slender, 60% intermediate, 20% late intermediate-stumpy). ST Stumpy bloodforms (>60% late intermediate-stumpy, the remainder intermediate). • FIGURE 4 illustrates the solubility analysis of immunoreactive proteins. TREU 667 procyclic form cells were lysed in buffer containing various detergents as indicated. Lanes: 1) 1% NP-40 + 0.25% deoxycholate; 2) 1% NP-40; 3) 2% SDS; 4) freeze/thaw lysis. Solubilized proteins (S), insoluble pellets (P), total lysate (T). • FIGURE 5 illustrates the effect of orthovanadate on cell growth. […] Growth of the parasites was monitored by measuring the optical density at 600 nm over ranges which were previously established to be linearly related to cell density. • FIGURE 6 illustrates the effect of orthovanadate on protein phosphorylation and tyrosine phosphorylation in TREU 667 procyclic forms. […] The cells were rinsed three times and an aliquot equivalent to 2.3 x 10⁵ cells was analyzed by SDS-PAGE and autoradiography. […]
# [2] = test system: T. brucei cells; assay: Tyrosine phosphorylation with tyrosine kinase inhibitors in the presence of orthovanadate; format: cell-based; conditions: in the presence of the tyrosine phosphatase inhibitor orthovanadate
# Description: Many inhibitors of mammalian tyrosine kinase have been investigated by the present inventors to determine if tyrosine phosphorylation is reduced in the tested organisms.
# [3] = test system: TREU 667 procyclic forms; assay: SDS-PAGE analysis of proteins of cells metabolically labelled with [32P]-orthophosphate; format: cell-based, T. brucei; conditions: 1.5 µM orthovanadate, started one hour before overnight labelling (FIGURE 6C)
# Description: (§1) In the drawings: • FIGURE 1 illustrates the specificity of reactivity with anti-p-tyr antibodies. Lysate from the monomorphic trypanosome strain EATRO 164, clone IHRI 1, procyclic forms (10⁷ cells) was loaded per lane on a 10% sodium dodecyl sulfate polyacrylamide gel electrophoresis (SDS-PAGE) gel. Proteins were transferred to polyvinylidene difluoride membranes, incubated with anti-p-tyr antibodies, and followed by treatment with ¹²⁵I-protein A. Panel A: 0.25 µg ml⁻¹ anti-p-tyr antibodies. Panel B: 1 µg ml⁻¹ anti-p-tyr antibodies, plus 40 mM phenyl phosphate. Molecular weight markers are indicated. Lanes 1 and 2 differ only in the concentration of orthovanadate used during cell processing. • FIGURE 2 illustrates immunoprecipitation and phosphoamino acid analysis. Panel 2A: Western analysis of anti-p-tyr immunoprecipitates. Immunoreactive proteins were enriched by immunoprecipitation as described herein. […] Growth of the parasites was monitored by measuring the optical density at 600 nm over ranges which were previously established to be linearly related to cell density. • FIGURE 6 illustrates the effect of orthovanadate on protein phosphorylation and tyrosine phosphorylation in TREU 667 procyclic forms. […] The cells were rinsed three times and an aliquot equivalent to 2.3 x 10⁵ cells was analyzed by SDS-PAGE and autoradiography. […]
# [4] = test system: TREU 667 procyclic form cells; assay: Effect of orthovanadate on cell growth (optical density at 600 nm); format: cell-based, T. brucei
# Description: as §1
compound,measurement,setting,value
C[C@@H]1C[C@@H]([C@H](O)CC2CC(=O)NC(=O)C2)C(=O)[C@@H](C)C1 [cycloheximide],effect of cycloheximide on increased tyrosine phosphorylation mediated by orthovanadate,[1],does not prevent increased tyrosine phosphorylation
O=c1c(-c2ccc(O)cc2)coc2cc(O)cc(O)c12 [genestin],tyrosine phosphorylation in T. brucei cells,[2],decreased tyrosine phosphorylation
[O]=[V]([O-])([O-])[O-] [orthovanadate],pattern of 32P-labelled proteins observed after SDS-PAGE,[3],the same in control and treated cells
same,growth and motility of procyclic forms,[4]; 1.5 µM orthovanadate,"nonmotile but continued to divide, albeit more slowly"
same,toxicity to trypanosomes,"[4]; procyclic forms, concentrations approaching those used to cause phenotypic transformation of mammalian cells (30 µM)",toxic
same,time until tyrosine phosphorylation was maximal,[1]; 15 µM orthovanadate (FIGURE 6B),≤ 2 h
same,"level of protein tyrosine phosphorylation of specific substrates, particularly ptp40 and ptp42",[1]; after 6 hours in orthovanadate (FIGURE 6A),increased dramatically
same,time until tyrosine phosphorylation returned to near control levels,"[1]; after the drug was removed (cells grown in orthovanadate, rinsed free of drug)",≤ 24 h
